One compound from article PMC13249423, “Capsaicin acts as a novel NRF2 agonist to suppress ethanol induced gastric mucosa oxidative damage by directly disrupting the KEAP1-NRF2 interaction” (eLife, 2026) can be followed below.

Each structure is given as a SMILES string.

In one assay the target is T1, KEAP1 (Kelch domain, WT) (Homo sapiens, UniProt Q14145).
T1 construct: Kelch domain of KEAP1 (Lys312-Cys624)
Description: BLI with purified biotinylated Kelch (also HDX-MS, CETSA in GES-1 cells, pull-down and SPR disruption of KEAP1-NRF2). The format is binding.

The target of assay [1] is T2, KEAP1 (mutant Kelch domain) (Homo sapiens, UniProt Q14145, N382A/N414A/R380A/R415A/S602A/Y334A/Y572A).
T2 construct: Kelch domain of KEAP1 (Lys312-Cys624)
The assay can be described thus: BLI with purified biotinylated mutant Kelch. It is filed as binding.

T2 sequence (Q14145 312-624 Y334A/R380A/N382A/N414A/R415A/Y572A/S602A): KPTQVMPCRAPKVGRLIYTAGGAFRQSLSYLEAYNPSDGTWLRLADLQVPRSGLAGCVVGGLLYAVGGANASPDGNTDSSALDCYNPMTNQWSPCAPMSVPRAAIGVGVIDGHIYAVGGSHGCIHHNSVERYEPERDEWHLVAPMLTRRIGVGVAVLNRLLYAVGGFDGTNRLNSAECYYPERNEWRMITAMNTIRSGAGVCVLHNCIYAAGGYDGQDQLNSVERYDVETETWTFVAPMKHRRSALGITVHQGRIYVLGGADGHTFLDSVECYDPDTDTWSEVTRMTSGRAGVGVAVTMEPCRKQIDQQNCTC
T1 sequence (Q14145 312-624): as the sequence (Q14145 312-624 Y334A/R380A/N382A/N414A/R415A/Y572A/S602A) above, with A23Y, A69R, A71N, A103N, A104R, A261Y, A291S counted along it

Take `COc1cc(CNC(=O)CCCC/C=C/C(C)C)ccc1O` [CAP, capsaicin]: the Kd (commonly the equilibrium constant for the complex coming apart) came out at 31.5 µM at KEAP1 (Kelch domain, WT) and 102 µM in assay [1].
